Measurements taken from US20060069132A1, “Azolecarboxamide herbicides” (priority 2004, published 2006).

Key:
yellow nutsedge = assay: Test C pre-/postemergence herbicide test; assay type: in vivo, Cyperus esculentus
In short: (§1)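 Visual injury scores run from 0 (no effect) to 100 (complete control), assessed relative to untreated controls 12 to 14 days after treatment in the greenhouse. Chemicals were formulated in a non-phytotoxic solvent mixture with surfactant and applied to soil after planting or to emerged plants at the 1- to 4-leaf stage.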

giant foxtail [1] = assay: Test C pre-/postemergence herbicide test; assay type: in vivo, Setaria faberi
In short: as §1

giant foxtail [2] = assay: Test A pre-/postemergence herbicide test; assay type: in vivo, Setaria faberi
In short: (§2)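 Pre: seeded sandy loam, directed soil spray, compound in non-phytotoxic solvent + surfactant. Post: 1–2-leaf plants (2–10 cm), sprayed to runoff. Greenhouse ~10 d; visual injury vs untreated, 0–100 scale.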

velvetleaf = assay: Test A pre-/postemergence herbicide test; assay type: in vivo, Abutilon theophrasti
In short: as §2

soybean = assay: Test C pre-/postemergence herbicide test; assay type: in vivo, Glycine max
In short: as §1

large crabgrass = assay: Test A pre-/postemergence herbicide test; assay type: in vivo, Digitaria sanguinalis
In short: as §2

woolly cupgrass = assay: Test C pre-/postemergence herbicide test; assay type: in vivo, Eriochloa villosa
In short: as §1

morningglory = assay: Test C pre-/postemergence herbicide test; assay type: in vivo, Ipomoea coccinea; design: key to Plant response rating, Morningglory: 0 = no effect, 100 = complete control
In short: as §1

[3] = 125 g ai/ha, scale 0 (no effect) to 100 (complete control), visual, 12 to 14 days, preemergence
[4] = 250 g ai/ha, scale 0 to 100 (0 no effect, 100 complete control), visual, 12 to 14 days, preemergence
[5] = Preemergence, 500 g ai/ha, scale 0 to 100, 0 no effect, 100 complete control
[6] = Postemergence, 500 g ai/ha, 0 to 100 scale, 0 no effect, 100 complete control
[7] = Postemergence, 2000 g ai/ha, 0 to 100 scale, 0 no effect, 100 complete control
[8] = Preemergence, 500 g ai/ha, visual rating, 0 to 100 scale (0 no effect, 100 complete control)
[9] = Preemergence, 2000 g ai/ha, 0 to 100 scale, 0 no effect, 100 complete control
[10] = Preemergence, 2000 g ai/ha, visual rating, 0 to 100 scale (0 no effect, 100 complete control)
[11] = 62 g ai/ha, preemergence, scale 0 to 100
[12] = preemergence, 500 g ai/ha, visual injury, 0 to 100 scale (0 no effect, 100 complete control)
[13] = 250 g ai/ha, scale 0-100, preemergence
[14] = 500 g ai/ha, scale 0 to 100 (0 no effect, 100 complete control), visual, 12 to 14 days, preemergence
[15] = Postemergence, 500 g ai/ha, scale 0 to 100
[16] = Postemergence, 250 g ai/ha, scale 0 to 100, 0 no effect, 100 complete control
[17] = postemergence, 125 g ai/ha, scale 0 to 100
[18] = postemergence, 62 g ai/ha, scale 0 to 100

SMILES: CCn1nc(C(C)(C)C)cc1C(=O)Nc1cccc(C(=O)NCC(C)C)c1 [Compound 61]
- Plant response rating (0 = no effect, 100 = complete control), Nutsedge, Yellow (yellow nutsedge; 62 g ai/ha, preemergence): 0
- Plant response rating, Nutsedge, Yellow (yellow nutsedge; [3]): 0
- Plant response rating, Nutsedge, Yellow (yellow nutsedge; [4]): 10
- Nutsedge, Yellow plant response rating (yellow nutsedge; [5]): 30
- Plant response rating (0 = no effect, 100 = complete control), Foxtail, Giant (giant foxtail [1]; 62 g ai/ha, preemergence): 0
- Plant response rating, Foxtail, Giant (giant foxtail [1]; [3]): 20
- Plant response rating, Foxtail, Giant (giant foxtail [1]; [4]): 40
- Foxtail, Giant plant response rating (giant foxtail [1]; [5]): 60
- Plant response rating, Foxtail, Giant (giant foxtail [2]; [6]): 20
- Plant response rating, Foxtail, Giant (giant foxtail [2]; [7]): 85
- Foxtail, Giant plant response rating (giant foxtail [2]; [8]): 20
- Foxtail, Giant plant response rating (giant foxtail [2]; [9]): 75
- Plant response rating, Velvetleaf (velvetleaf; [7]): 15
- Velvetleaf plant response rating (velvetleaf; [8]): 55
- Velvetleaf plant response rating (velvetleaf; [10]): 85
- Plant response rating (0 = no effect, 100 = complete control), Soybean (soybean; 62 g ai/ha, preemergence): 0
- Plant response rating, Soybean (soybean; [3]): 0
- Plant response rating, Soybean (soybean; [4]): 0
- Soybean plant response rating (soybean; [5]): 10
- Plant response rating, Crabgrass, Large (large crabgrass; [6]): 30
- Plant response rating, Crabgrass, Large (large crabgrass; [7]): 45
- Crabgrass, Large plant response rating (large crabgrass; [8]): 75
- Crabgrass, Large plant response rating (large crabgrass; [9]): 90
- Plant response rating (0 = no effect, 100 = complete control), Cupgrass, Woolly (woolly cupgrass; 62 g ai/ha, preemergence): 0
- Plant response rating, Cupgrass, Woolly (woolly cupgrass; [3]): 0
- Plant response rating, Cupgrass, Woolly (woolly cupgrass; [4]): 0
- Cupgrass, Woolly plant response rating (woolly cupgrass; [5]): 10
- Plant response rating (0 = no effect, 100 = complete control), Morningglory (morningglory; 62 g ai/ha, preemergence): 0
- Plant response rating, Morningglory (morningglory; [3]): 0
- Plant response rating, Morningglory (morningglory; [4]): 5
- Morningglory plant response rating (morningglory; [5]): 100

SMILES: CCN(CC)C(=O)c1ccnc(NC(=O)c2cc(C(C)(C)C)nn2CC)c1 [Compound 153]
- Plant response rating, Nutsedge, Yellow (yellow nutsedge; [11]): 0
- Plant response rating, Nutsedge, Yellow (yellow nutsedge; [3]): 0
- Nutsedge, Yellow plant response rating (yellow nutsedge; [5]): 45
- Plant response rating, Foxtail, Giant (giant foxtail [1]; [11]): 0
- Plant response rating, Foxtail, Giant (giant foxtail [1]; [3]): 0
- Plant response rating, Foxtail, Giant (giant foxtail [1]; [4]): 0
- Foxtail, Giant plant response rating (giant foxtail [1]; [5]): 0
- Foxtail, Giant plant response rating (giant foxtail [2]; [6]): 20
- Plant response rating, Foxtail, Giant (giant foxtail [2]; [7]): 90
- Foxtail, Giant plant response rating (giant foxtail [2]; [8]): 15
- Foxtail, Giant plant response rating (giant foxtail [2]; [10]): 60
- Velvetleaf plant response rating (velvetleaf; [6]): 40
- Plant response rating, Velvetleaf (velvetleaf; [7]): 65
- Velvetleaf plant response rating (velvetleaf; [10]): 80
- Velvetleaf plant response rating (velvetleaf; [12]): 15
- Plant response rating, Soybean (soybean; [11]): 0
- Plant response rating, Soybean (soybean; [3]): 0
- Soybean plant response rating (soybean; [5]): 15
- Crabgrass, Large plant response rating (large crabgrass; [6]): 10
- Plant response rating, Crabgrass, Large (large crabgrass; [7]): 20
- Crabgrass, Large plant response rating (large crabgrass; [8]): 25
- Crabgrass, Large plant response rating (large crabgrass; [10]): 25
- Plant response rating, Cupgrass, Woolly (woolly cupgrass; [11]): 0
- Plant response rating, Cupgrass, Woolly (woolly cupgrass; [3]): 0
- Plant response rating, Cupgrass, Woolly (woolly cupgrass; [4]): 0
- Cupgrass, Woolly plant response rating (woolly cupgrass; [5]): 60
- Plant response rating, Morningglory (morningglory; [11]): 0
- Plant response rating, Morningglory (morningglory; [3]): 0
- Morningglory plant response rating (morningglory; [5]): 15

SMILES: C=CCNC(=O)c1cccc(NC(=O)c2cc(C(C)(C)C)nn2C)n1 [Compound 318]
- Plant response rating, Nutsedge, Yellow (yellow nutsedge; [11]): 0
- Plant response rating, Nutsedge, Yellow (yellow nutsedge; [3]): 0
- Plant response rating, Nutsedge, Yellow (yellow nutsedge; [13]): 0
- Plant response rating, Nutsedge, Yellow (yellow nutsedge; [14]): 0
- Nutsedge, Yellow plant response rating (yellow nutsedge; [15]): 0
- Plant response rating, Nutsedge, Yellow (yellow nutsedge; [16]): 0
- Plant response rating, Nutsedge, Yellow (yellow nutsedge; [17]): 0
- Plant response rating, Nutsedge, Yellow (yellow nutsedge; [18]): 0
- Plant response rating, Foxtail, Giant (giant foxtail [1]; [11]): 0
- Plant response rating, Foxtail, Giant (giant foxtail [1]; [3]): 10
- Plant response rating, Foxtail, Giant (giant foxtail [1]; [13]): 50
- Plant response rating, Foxtail, Giant (giant foxtail [1]; [14]): 80
- Foxtail, Giant plant response rating (giant foxtail [1]; [15]): 10
- Plant response rating, Foxtail, Giant (giant foxtail [1]; [16]): 5
- Plant response rating, Foxtail, Giant (giant foxtail [1]; [17]): 0
- Plant response rating, Foxtail, Giant (giant foxtail [1]; [18]): 0
- Foxtail, Giant plant response rating (giant foxtail [2]; [6]): 50
- Plant response rating, Foxtail, Giant (giant foxtail [2]; [7]): 90
- Foxtail, Giant plant response rating (giant foxtail [2]; [10]): 85
- Foxtail, Giant plant response rating (giant foxtail [2]; [12]): 40
- Velvetleaf plant response rating (velvetleaf; [6]): 40
- Plant response rating, Velvetleaf (velvetleaf; [7]): 50
- Velvetleaf plant response rating (velvetleaf; [10]): 80
- Velvetleaf plant response rating (velvetleaf; [12]): 30
- Plant response rating, Soybean (soybean; [11]): 0
- Plant response rating, Soybean (soybean; [13]): 10
- Plant response rating, Soybean (soybean; [14]): 40
- Soybean plant response rating (soybean; [15]): 90
- Plant response rating, Soybean (soybean; [16]): 80
- Plant response rating, Soybean (soybean; [17]): 70
- Plant response rating, Soybean (soybean; [18]): 65
- Crabgrass, Large plant response rating (large crabgrass; [6]): 30
- Plant response rating, Crabgrass, Large (large crabgrass; [7]): 70
- Crabgrass, Large plant response rating (large crabgrass; [10]): 70
- Crabgrass, Large plant response rating (large crabgrass; [12]): 55
- Plant response rating, Cupgrass, Woolly (woolly cupgrass; [11]): 0
- Plant response rating, Cupgrass, Woolly (woolly cupgrass; [3]): 0
- Plant response rating, Cupgrass, Woolly (woolly cupgrass; [13]): 0
- Plant response rating, Cupgrass, Woolly (woolly cupgrass; [14]): 10
- Cupgrass, Woolly plant response rating (woolly cupgrass; [15]): 20
- Plant response rating, Cupgrass, Woolly (woolly cupgrass; [16]): 10
- Plant response rating, Cupgrass, Woolly (woolly cupgrass; [17]): 0
- Plant response rating, Cupgrass, Woolly (woolly cupgrass; [18]): 0
- Plant response rating, Morningglory (morningglory; [11]): 0
- Plant response rating, Morningglory (morningglory; [3]): 0
- Plant response rating, Morningglory (morningglory; [13]): 0
- Plant response rating, Morningglory (morningglory; [14]): 85
- Morningglory plant response rating (morningglory; [15]): 0
- Plant response rating, Morningglory (morningglory; [16]): 0
- Plant response rating, Morningglory (morningglory; [17]): 0
- Plant response rating, Morningglory (morningglory; [18]): 0

SMILES: CCc1nc(C(C)(C)C)sc1C(=O)Nc1cccc(C(=O)N(CC)CC)c1 [Compound 205]
- Plant response rating, Nutsedge, Yellow (yellow nutsedge; [11]): 0
- Plant response rating, Nutsedge, Yellow (yellow nutsedge; [3]): 0
- Plant response rating, Nutsedge, Yellow (yellow nutsedge; [13]): 0
- Nutsedge, Yellow plant response rating (yellow nutsedge; [5]): 10
- Plant response rating, Foxtail, Giant (giant foxtail [1]; [11]): 0
- Plant response rating, Foxtail, Giant (giant foxtail [1]; [3]): 10
- Plant response rating, Foxtail, Giant (giant foxtail [1]; [13]): 80
- Foxtail, Giant plant response rating (giant foxtail [1]; [5]): 95
- Foxtail, Giant plant response rating (giant foxtail [2]; [6]): 10
- Plant response rating, Foxtail, Giant (giant foxtail [2]; [7]): 25
- Foxtail, Giant plant response rating (giant foxtail [2]; [10]): 100
- Foxtail, Giant plant response rating (giant foxtail [2]; [12]): 85
- Velvetleaf plant response rating (velvetleaf; [6]): 20
- Plant response rating, Velvetleaf (velvetleaf; [7]): 30
- Velvetleaf plant response rating (velvetleaf; [10]): 100
- Velvetleaf plant response rating (velvetleaf; [12]): 70
- Plant response rating, Soybean (soybean; [3]): 20
- Plant response rating, Soybean (soybean; [13]): 20
- Soybean plant response rating (soybean; [5]): 60
- Crabgrass, Large plant response rating (large crabgrass; [6]): 10
- Plant response rating, Crabgrass, Large (large crabgrass; [7]): 20
- Crabgrass, Large plant response rating (large crabgrass; [10]): 95
- Crabgrass, Large plant response rating (large crabgrass; [12]): 80
- Plant response rating, Cupgrass, Woolly (woolly cupgrass; [11]): 0
- Plant response rating, Cupgrass, Woolly (woolly cupgrass; [3]): 10
- Plant response rating, Cupgrass, Woolly (woolly cupgrass; [13]): 10
- Cupgrass, Woolly plant response rating (woolly cupgrass; [5]): 50
- Plant response rating, Morningglory (morningglory; [11]): 0
- Plant response rating, Morningglory (morningglory; [3]): 0
- Plant response rating, Morningglory (morningglory; [13]): 10
- Morningglory plant response rating (morningglory; [5]): 50
